Values of other authors, collected in patent US20250231185A1, “Coronavirus T Cell Epitopes, Megapools and Uses Thereof” (La Jolla Institute for Immunology, priority 2021, published 2025).
Read-outs that look alike come from different tables or passages of the source.

System: CD8+ T cells
Conditions: cited from earlier work; for dominance as reported: HLA-A*01:01 epitopes overlapping TTDPSFLGRY, Saini et al.
[1] = CD8R (D) megapool epitopes, dominant = recognized by 3 or more donors/different studies
[2] = CD8RE megapool peptides (non-spike SARS-CoV-2 antigens), dominant epitope Yes/No
[3] = SARS-CoV-2-derived CD8 epitopes, dominant = recognized by 3 or more donors/different studies
[4] = T cell subset (CD4 or CD8) recognizing the SARS-CoV-2-derived epitope
[5] = SARS-CoV-2 Ag S, T cell type recognizing the epitope
[6] = T cell type (CD4 or CD8) recognizing the SARS-CoV-2 epitope

TTDPSFLGRYM [nsp3 819-829]
dominance as reported: particularly dominant

1675 (SMWSFNPET) [compound 1675]
Dominant [1]: Yes (more dominant epitopes are defined by being recognized by 3 or more donors/different studies)

3022 (KLKDCVMYA) [compound 3022]
Dominant [2]: Yes (more dominant epitopes are defined by being recognized by 3 or more donors/different studies)

1761 (FGDDTVIEV) [compound 1761]
Dominant [1]: Yes (more dominant epitopes are defined by being recognized by 3 or more donors/different studies)

2937 (ASAFFGMSR) [compound 2937]
Dominant [2]: Yes (more dominant epitopes are defined by being recognized by 3 or more donors/different studies)

3034 (VTDTPKGPK) [compound 3034]
Dominant [2]: Yes (more dominant epitopes are defined by being recognized by 3 or more donors/different studies)

678 (SAPPAQYEL) [compound 678]
Dominant [3]: Yes (more dominant epitopes are defined by being recognized by 3 or more donors/different studies)
Restriction [4]: CD8

2936 (AQFAPSASAF) [compound 2936]
Dominant [2]: Yes (more dominant epitopes are defined by being recognized by 3 or more donors/different studies)

649 (ITFDNLKTL) [compound 649]
Restriction [4]: CD8

3003 (ASMPTTIAK) [compound 3003]
Dominant [2]: Yes (more dominant epitopes are defined by being recognized by 3 or more donors/different studies)

599 (VEVQPQLEM) [compound 599]
Restriction [4]: CD8

1798 (YTELEPPCRF) [compound 1798]
Dominant [1]: Yes (more dominant epitopes are defined by being recognized by 3 or more donors/different studies)

522 (KSAAEASKK) [compound 522]
Restriction [4]: CD8

1370 (QEVFAQVKQIY) [compound 1370]
Restriction [5]: CD8

572 (VRSIFSRTL) [compound 572]
Restriction [4]: CD8

1004 (VYLPYPDPSRI) [compound 1004]
Restriction [6]: CD8

1098 (WRNTNPIQL) [compound 1098]
Restriction [6]: CD8

1456 (LQELGKYEQY) [compound 1456]
Restriction [5]: CD8

1702 (ASAFFGMSR) [compound 1702]
Dominant [1]: Yes (more dominant epitopes are defined by being recognized by 3 or more donors/different studies)

1402 (ALNTLVKQL) [compound 1402]
Restriction [5]: CD8

1032 (VPQEHYVRI) [compound 1032]
Restriction [6]: CD8

3052 (KLGSLVVRC) [compound 3052]
Dominant [2]: Yes (more dominant epitopes are defined by being recognized by 3 or more donors/different studies)

3047 (RARSVSPKL) [compound 3047]
Dominant [2]: Yes (more dominant epitopes are defined by being recognized by 3 or more donors/different studies)

625 (LTAVVIPTK) [compound 625]
Restriction [4]: CD8

997 (LRKHFSMMI) [compound 997]
Restriction [6]: CD8

654 (QVVDMSMTY) [compound 654]
Restriction [4]: CD8

2968 (VVYRGTTTY) [compound 2968]
Dominant [2]: Yes (more dominant epitopes are defined by being recognized by 3 or more donors/different studies)

1417 (AEIRASANL) [compound 1417]
Restriction [5]: CD8

1687 (KMKDLSPRW) [compound 1687]
Dominant [1]: Yes (more dominant epitopes are defined by being recognized by 3 or more donors/different studies)

555 (LPAADLDDF) [compound 555]
Dominant [3]: Yes (more dominant epitopes are defined by being recognized by 3 or more donors/different studies)
Restriction [4]: CD8

2924 (SPRWYFYYL) [compound 2924]
Dominant [2]: Yes (more dominant epitopes are defined by being recognized by 3 or more donors/different studies)

1083 (SVVSKVVKV) [compound 1083]
Restriction [6]: CD8

1300 (KVGGNYNYLY) [compound 1300]
Restriction [5]: CD8

1755 (KMQRMLLEK) [compound 1755]
Dominant [1]: Yes (more dominant epitopes are defined by being recognized by 3 or more donors/different studies)

1403 (SVLNDILSR) [compound 1403]
Restriction [5]: CD8

3032 (CTDDNALAYY) [compound 3032]
Dominant [2]: Yes (more dominant epitopes are defined by being recognized by 3 or more donors/different studies)

1730 (LVLSVNPYV) [compound 1730]
Dominant [1]: Yes (more dominant epitopes are defined by being recognized by 3 or more donors/different studies)

2939 (MEVTPSGTW) [compound 2939]
Dominant [2]: Yes (more dominant epitopes are defined by being recognized by 3 or more donors/different studies)

957 (FAVSKGFFK) [compound 957]
Restriction [6]: CD8

1721 (VVDKYFDCY) [compound 1721]
Dominant [1]: Yes (more dominant epitopes are defined by being recognized by 3 or more donors/different studies)

907 (SEISMDNSPNL) [compound 907]
Restriction [6]: CD8

994 (FVNEFYAYL) [compound 994]
Restriction [6]: CD8

987 (MASLVLARK) [compound 987]
Restriction [6]: CD8

1722 (RLYYDSMSY) [compound 1722]
Dominant [1]: Yes (more dominant epitopes are defined by being recognized by 3 or more donors/different studies)

916 (YLYFIKGLNNL) [compound 916]
Restriction [6]: CD8

1349 (RSVASQSII) [compound 1349]
Restriction [5]: CD8

581 (APKEIIFL) [compound 581]
Restriction [4]: CD8

HTTDPSFLGRY [nsp3 818-828]
dominance as reported: particularly dominant

1414 (RLQSLQTY) [compound 1414]
Restriction [5]: CD8

1450 (NASVVNIQK) [compound 1450]
Restriction [5]: CD8

2915 (RYRIGNYKL) [compound 2915]
Dominant [2]: Yes (more dominant epitopes are defined by being recognized by 3 or more donors/different studies)

1399 (IANQFNSAI) [compound 1399]
Restriction [5]: CD8

1772 (STFNVPMEK) [compound 1772]
Dominant [1]: Yes (more dominant epitopes are defined by being recognized by 3 or more donors/different studies)

1795 (ALRANSAVK) [compound 1795]
Dominant [1]: Yes (more dominant epitopes are defined by being recognized by 3 or more donors/different studies)

2902 (YVYSRVKNL) [compound 2902]
Dominant [2]: Yes (more dominant epitopes are defined by being recognized by 3 or more donors/different studies)

1691 (ATEGALNTPK) [compound 1691]
Dominant [1]: Yes (more dominant epitopes are defined by being recognized by 3 or more donors/different studies)

1698 (KPRQKRTAT) [compound 1698]
Dominant [1]: Yes (more dominant epitopes are defined by being recognized by 3 or more donors/different studies)

1002 (KQGDDYVYL) [compound 1002]
Restriction [6]: CD8

3042 (LLYDANYFL) [compound 3042]
Dominant [2]: Yes (more dominant epitopes are defined by being recognized by 3 or more donors/different studies)

1332 (NTSNQVAVLY) [compound 1332]
Restriction [5]: CD8

2957 (RLYYDSMSY) [compound 2957]
Dominant [2]: Yes (more dominant epitopes are defined by being recognized by 3 or more donors/different studies)

1445 (IITTDNTFV) [compound 1445]
Restriction [5]: CD8

2988 (MLWCKDGHV) [compound 2988]
Dominant [2]: Yes (more dominant epitopes are defined by being recognized by 3 or more donors/different studies)

1696 (LLLDRLNQL) [compound 1696]
Dominant [1]: Yes (more dominant epitopes are defined by being recognized by 3 or more donors/different studies)

1066 (AGFSLWVYK) [compound 1066]
Restriction [6]: CD8

1674 (RLFARTRSMW) [compound 1674]
Dominant [1]: Yes (more dominant epitopes are defined by being recognized by 3 or more donors/different studies)

2911 (SELVIGAVIL) [compound 2911]
Dominant [2]: Yes (more dominant epitopes are defined by being recognized by 3 or more donors/different studies)

673 (GEAANFCAL) [compound 673]
Restriction [4]: CD8

2953 (FVDGVPFVV) [compound 2953]
Dominant [2]: Yes (more dominant epitopes are defined by being recognized by 3 or more donors/different studies)

655 (MSMTYGQQF) [compound 655]
Restriction [4]: CD8

2989 (GVAMPNLYK) [compound 2989]
Dominant [2]: Yes (more dominant epitopes are defined by being recognized by 3 or more donors/different studies)

962 (YRYNLPTMC) [compound 962]
Restriction [6]: CD8

1051 (KNLSDRVVFV) [compound 1051]
Restriction [6]: CD8

1763 (QEILGTVSW) [compound 1763]
Dominant [1]: Yes (more dominant epitopes are defined by being recognized by 3 or more donors/different studies)

2946 (VLSEARQHL) [compound 2946]
Dominant [2]: Yes (more dominant epitopes are defined by being recognized by 3 or more donors/different studies)

2965 (LVLSVNPYV) [compound 2965]
Dominant [2]: Yes (more dominant epitopes are defined by being recognized by 3 or more donors/different studies)

659 (HTTDPSFLGR) [compound 659]
Restriction [4]: CD8

3041 (VYFLQSINF) [compound 3041]
Dominant [2]: Yes (more dominant epitopes are defined by being recognized by 3 or more donors/different studies)

665 (MSALNHTKK) [compound 665]
Restriction [4]: CD8

1690 (GTGPEAGLPY) [compound 1690]
Dominant [1]: Yes (more dominant epitopes are defined by being recognized by 3 or more donors/different studies)

1435 (TYVPAQEKNFT) [compound 1435]
Restriction [5]: CD8

1744 (IEYPIIGDEL) [compound 1744]
Dominant [1]: Yes (more dominant epitopes are defined by being recognized by 3 or more donors/different studies)

1005 (YLPYPDPSRI) [compound 1005]
Restriction [6]: CD8

1418 (RASANLAATK) [compound 1418]
Restriction [5]: CD8
